Reference: US20210030802A1, “GLUCOCORTICOID-RESISTANT LEUKOCYTES AND THEIR USE IN THE TREATMENT OF CANCERS AND VIRUSES” (CONSTANT BIOTECHNOLOGY, LLC, priority 2018, published 2021)

How the values were obtained:
RS4;11 cells = test: Survival of lenti-transduced cells in presence of steroids with or without HSD inhibitor (CELLTITER-GLO); type: cell-based, human; details: HSD11B2-transduced RS4;11 cells; for Effect of HSD inhibitor on steroid protection of transduced cells: DEX or PRED, carbenoxolone 1 μM and 10 μM; for Reversal of protection against dexamethasone by HSD inhibitor / Reversal of protection against prednisolone by HSD inhibitor: posaconazole 1 μM, carbenoxolone 10 μM or 1 μM
HSD11B2 = target: T1, HSD11B2 (Homo sapiens, UniProt P80365); test: Effect of HSD inhibitor on steroid degradation by HSD11B2-transduced stimulated leukocytes; type: cell-based; details: posaconazole 7 μM
T1 construct: expressed in transfected cells
T1 sequence (P80365 1-405): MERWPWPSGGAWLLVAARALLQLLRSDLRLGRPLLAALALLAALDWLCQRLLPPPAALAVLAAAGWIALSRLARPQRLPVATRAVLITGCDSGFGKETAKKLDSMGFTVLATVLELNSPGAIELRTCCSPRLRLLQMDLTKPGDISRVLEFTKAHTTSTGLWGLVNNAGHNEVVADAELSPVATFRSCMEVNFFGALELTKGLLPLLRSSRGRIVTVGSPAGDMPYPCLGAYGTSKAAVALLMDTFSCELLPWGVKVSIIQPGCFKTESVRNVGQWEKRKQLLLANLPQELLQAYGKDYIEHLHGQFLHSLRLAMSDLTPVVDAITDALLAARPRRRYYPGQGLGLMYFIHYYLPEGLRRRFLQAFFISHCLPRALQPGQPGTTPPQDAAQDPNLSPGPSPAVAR

HSD11B1 = target: T2, HSD11B1 (Homo sapiens, UniProt P28845); test: Effect of HSD inhibitor on steroid degradation by HSD11B1-transduced stimulated leukocytes; type: cell-based; details: posaconazole 7 μM
T2 construct: expressed in transfected cells
T2 sequence (P28845 whole entry): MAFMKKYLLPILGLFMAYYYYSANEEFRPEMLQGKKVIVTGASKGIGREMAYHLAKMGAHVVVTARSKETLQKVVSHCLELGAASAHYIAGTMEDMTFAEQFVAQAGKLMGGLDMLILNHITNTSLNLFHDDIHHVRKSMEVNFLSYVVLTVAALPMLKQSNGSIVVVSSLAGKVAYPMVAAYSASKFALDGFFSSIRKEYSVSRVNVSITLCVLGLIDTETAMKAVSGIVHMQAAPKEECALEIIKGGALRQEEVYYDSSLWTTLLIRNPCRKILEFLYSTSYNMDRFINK

stimulated leukocytes [1] = test: Steroid degradation by lentivirally transduced stimulated leukocytes, steroid detected by ELISA; type: cell-based, human
stimulated leukocytes [2] = test: Conversion of cortisol to cortisone by transduced stimulated leukocytes, UHPLC-Mass Spectrometry; type: cell-based, human
Description: Human peripheral blood leukocytes (HPBL) were prepared by density gradient centrifugation of anti-coagulated human blood (Cincinnati Children's Hospital Cell Processing Core). HPBL were stimulated with CYTOSTIM™, inteleukin 2 (IL-2) in TEXMACS™ media (all reagents, Miltenyi Biotech) according to manufacturer's instructions for three days. […] After stimulation, the entire population of stimulated cells (“stimulated leukocytes”) were cryopreserved in cell freezing media which contained dimethyl sulfoxide (DMSO). Prior to experiments, cryopreserved stimulated leukocytes were thawed, washed twice and cultured in TEXMACS™ media supplemented with 10% (v/v) heat inactivated fetal bovine serum (HI-FBS, VWR). After an overnight incubation, typical cell viability post-thaw was greater than 95% as determined by Trypan blue dye exclusion. Post-thaw, cells were cultured overnight prior to transduction with lentivirus. […]
Viral copy number (VCN) was assessed on cell pellets by real-time polymerase chain reaction (RT-PCR) by extracting the genomic DNA and using primers and probes for the R-U5 region of the lentiviral vector. VCN was determined using a cGMP testing protocol conducted by the Translational Trials Support & Development Laboratory of Cincinnati Children's Hospital. […] To permit direct comparison of the intrinsic activity of each enzyme construct—independent of any variability of target cell transduction or number of transduced cells in an experimental arm—VCN values were combined with the number of live cells measured at the end of incubation to adjust data to reflect a uniform level of cells carrying the transgene.
Cortisol and cortisone levels in supernatants were quantified by the Michigan Regional Comprehensive Metabolomics Resource Core at the University of Michigan, Ann Arbor, Mich., in a delta 4 (D4-) steroid hormone assay using combined ultra-high pressure liquid chromatography and triple quadrapole (UHPLC-QQQ) mass spectrometry. […]

## CC[C@@H]([C@H](C)O)n1ncn(-c2ccc(N3CCN(c4ccc(OC[C@@H]5CO[C@@](Cn6cncn6)(c6ccc(F)cc6F)C5)cc4)CC3)cc2)c1=O [posaconazole]
RS4;11 cells
  Effect of HSD inhibitor on steroid protection of transduced cells: reduced or eliminated
  Reversal of protection against dexamethasone by HSD inhibitor: Protection was reversed
  Reversal of protection against prednisolone by HSD inhibitor: Protection was reversed
HSD11B2
  Inhibition of steroid degradation by HSD11B2 genes (HSD11B2, B2-Tag and wtExon1-none): inhibited
HSD11B1
  Inhibition of HSD11B1 degradation of steroids: also inhibited
  Inhibition of HSD11B1 depletion (conversion) of prednisolone and dexamethasone: strongly inhibited

## CC1(C)[C@@H](OC(=O)CCC(=O)O)CC[C@]2(C)[C@H]3C(=O)C=C4[C@@H]5C[C@@](C)(C(=O)O)CC[C@]5(C)CC[C@@]4(C)[C@]3(C)CC[C@@H]12 [carbenoxolone]
RS4;11 cells
  Effect of HSD inhibitor on steroid protection of transduced cells: reduced or eliminated
  Reversal of protection against dexamethasone by HSD inhibitor: Protection was reversed
  Reversal of protection against prednisolone by HSD inhibitor: Protection was reversed
RS4;11 cells; listed as Carbenoxolone
  Effect of HSD inhibitor on steroid protection of transduced cells: showed a dose response effect

B1: wtExon1-none: modified HSD11B2 gene wherein approximately exon 1 was not codon modified but remained wild type (SEQ ID No.: 31) (nucleic acid)
DNA: CCCCTCACTCGGCGCGATCTAGATCTCGAATCGCCAGCCCGCTGGGCCGCCATGGAGCGCTGGCCTTGGCCGTCGGGCGGCGCCTGGCTGCTCGTGGCTGCCCGCGCGCTGCTGCAGCTGCTGCGCTCAGACCTGCGTCTGGGCCGCCCGCTGCTGGCGGCGCTGGCGCTGCTGGCCGCGCTCGACTGGCTGTGCCAGCGCCTGCTGCCCCCGCCGGCCGCACTCGCCGTGCTGGCCGCCGCCGGCTGGATCGCGTTGTCCCGCCTGGCGCGCCCGCAGCGCCTGCCGGTGGCCACTCGCGCGGTGCTCATCACCGGTTGTGACTCTGGTTTTGGTAAGGAGACGGCTAAGAAACTGGACTCCATGGGTTTCACGGTGCTGGCTACCGTATTGGAGTTGAACAGCCCTGGTGCTATCGAGCTGCGTACCTGCTGCTCCCCTCGTCTAAGGCTGCTGCAGATGGACCTGACCAAACCAGGAGACATTAGCCGTGTGCTAGAGTTCACCAAGGCTCACACCACCAGCACCGGTCTGTGGGGTCTCGTCAACAACGCAGGTCACAATGAAGTAGTTGCTGATGCAGAGCTGTCTCCAGTGGCTACTTTCCGTAGCTGCATGGAGGTGAATTTCTTTGGTGCACTCGAGCTGACCAAGGGTCTCCTGCCTCTGCTGCGTAGCTCAAGGGGTCGTATCGTGACTGTGGGAAGCCCAGCAGGAGACATGCCATATCCATGCTTGGGAGCTTATGGAACCTCCAAAGCAGCTGTGGCACTACTCATGGACACATTCAGCTGTGAACTCCTTCCTTGGGGAGTCAAGGTCAGCATCATCCAGCCTGGTTGCTTCAAGACAGAGTCAGTGAGAAACGTGGGTCAGTGGGAAAAGCGTAAGCAATTGCTGCTGGCTAACCTGCCTCAAGAGCTGCTGCAGGCTTACGGTAAGGACTACATCGAGCACTTGCATGGACAGTTCCTGCACTCGCTACGTCTGGCTATGTCCGACCTCACCCCAGTTGTAGATGCTATCACAGATGCACTGCTGGCAGCTAGGCCTCGTCGTCGTTATTACCCTGGTCAGGGTCTGGGACTCATGTACTTCATCCACTACTACCTGCCTGAAGGTCTGAGGCGTCGTTTCCTGCAGGCTTTCTTCATCAGTCACTGTCTGCCTCGAGCACTGCAGCCTGGTCAGCCTGGTACTACCCCACCACAGGACGCAGCTCAGGACCCAAACCTGAGCCCTGGTCCTTCCCCAGCAGTGGCTAGGTGACCTGAAAAAGGGGTACCTTTAAGACCAATGACTTACAAGGCAGCTGTAG
modifications: wtExon1-none
Stimulated leukocytes [1]; cortisol 100 nM, ELISA
  Cortisol levels at end of assay: below the limit of quantitation
Stimulated leukocytes [1]; steroid 100 nM, 18 to 24 hours, adjusted for number of transgene bearing cells
  Degradation of cortisol, prednisolone and dexamethasone: degraded the steroids
Stimulated leukocytes [1]; transduced leukocytes
  Rate of conversion of prednisolone or dexamethasone: at least 2000 pg/hour/10^5 of genetically modified leukocytes
Stimulated leukocytes [2]; UHPLC-Mass Spectrometry
  Generation of cortisone from cortisol: generated cortisone
Stimulated leukocytes [2]; assuming no inter-conversion
  Rate of cortisol depletion indirectly calculated from cortisone production: about 1,014 pg/hr/10e5 copies of the transgene
Stimulated leukocytes [2]; transduced leukocytes
  Rate of conversion of cortisol to cortisone: 800-1200 pg/hour/10^5 of genetically modified leukocytes
